Earlier results in patent publication US20130039957A1, “CONTROLLED RELEASE PHARMACEUTICAL COMPOSITIONS OF BRIVARACETAM” (LUPIN LIMITED, priority 2010, published 2013).
In brackets after ≈: the same amount, converted by molar mass.

How the values were obtained:
[1] = healthy subjects
[2] = test system: neuronal voltage-dependent sodium channels; settings: preclinical studies
[3] = target: synaptic vesicle protein 2A (SV2A) (Homo sapiens, UniProt Q7L0J3); settings: preclinical studies
Chain of synaptic vesicle protein 2A (SV2A) (Q7L0J3 whole entry, species assumed): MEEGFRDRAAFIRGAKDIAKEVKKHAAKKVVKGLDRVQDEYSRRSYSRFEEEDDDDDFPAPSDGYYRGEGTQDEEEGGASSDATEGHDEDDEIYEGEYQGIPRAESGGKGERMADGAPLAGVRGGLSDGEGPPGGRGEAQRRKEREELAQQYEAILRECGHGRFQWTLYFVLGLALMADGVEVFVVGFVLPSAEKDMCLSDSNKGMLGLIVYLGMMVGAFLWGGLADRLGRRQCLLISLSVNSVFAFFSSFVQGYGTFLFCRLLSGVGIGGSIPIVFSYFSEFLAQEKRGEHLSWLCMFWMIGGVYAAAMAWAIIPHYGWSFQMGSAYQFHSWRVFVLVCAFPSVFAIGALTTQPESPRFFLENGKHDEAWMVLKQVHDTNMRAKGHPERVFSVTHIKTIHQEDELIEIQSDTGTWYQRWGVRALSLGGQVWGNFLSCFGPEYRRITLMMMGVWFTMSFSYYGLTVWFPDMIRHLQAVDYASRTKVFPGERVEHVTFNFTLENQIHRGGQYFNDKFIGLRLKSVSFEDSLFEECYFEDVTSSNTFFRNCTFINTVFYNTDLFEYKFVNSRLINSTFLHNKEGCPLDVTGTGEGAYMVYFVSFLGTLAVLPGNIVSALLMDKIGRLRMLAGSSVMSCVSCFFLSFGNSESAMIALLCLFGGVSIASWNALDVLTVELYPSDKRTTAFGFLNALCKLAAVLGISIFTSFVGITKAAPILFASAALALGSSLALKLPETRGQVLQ

CCC[C@@H]1CC(=O)N([C@@H](CC)C(N)=O)C1 [Brivaracetam]
half life [1]: 7.6 ± 1.7 h
inhibitory activity at neuronal voltage-dependent sodium channels [2]: has inhibitory activity
water solubility: 700 mg/mL (≈ 3300 mM)
affinity for synaptic vesicle protein 2A (SV2A) [3]: showed affinity
